Literature values in patent US20070294068A1, “LINE-WALKING RECURSIVE PARTITIONING METHOD FOR EVALUATING MOLECULAR INTERACTIONS AND QUESTIONS RELATING TO TEST OBJECTS” (priority 2006, published 2007).

Test system: 2C9
Conditions: literature reports

SMILES | reported inhibition of 2C9
CCc1ccc(CCOc2ccc(CC3SC(=O)NC3=O)cc2)nc1 (centres unmarked) [pioglitazone] | weak inhibitor of the *2 allylic variant not the native enzyme
Nc1ccc(S(=O)(=O)Nc2ncccn2)cc1 [sulfadiazine] | only a weak inhibitor
